Test results reported in patent US10047105B2, “Gyrase inhibitors” (Merck Sharp & Dohme Corp., priority 2009, dated 2018).
Converted amounts (≈) assume the structure as drawn.

What was measured:
Type in all cases: cell-based
S. aureus ATCC 13709 = test: MIC, antibacterial potency, S. aureus; conditions: S. aureus (SA); in µg/mL
S. pneumoniae ATCC 51916 = test: MIC, S. pneumoniae; conditions: S. pneumoniae (Spn52); in µg/mL
E. coli 8 ATCC 25922 = test: MIC, E. coli 8 (wt); conditions: E. coli 8 (EC8)

Row | SMILES | MIC, SA (S. aureus ATCC 13709) | MIC Spn52 (S. pneumoniae ATCC 51916) | MIC EC8 (E. coli 8 ATCC 25922) [µg/mL]
1 | CCc1[nH]c2nc(Oc3cnc(N)nc3)nc(N3CC4C(N)C4C3)c2c1Cl (stereo not drawn) [701,122] | 2 | 2 | 32 (≈ 82.7 µM)
2 | CCc1[nH]c2nc(Oc3cccc(C#N)c3)nc(C(C)N)c2c1Cl (stereo not drawn) [700,946] | >64 | >64 | > 64
3 | CCc1[nH]c2nc(Oc3ccc4nccnc4c3)nc(Oc3ccc4ncn(C)c4c3)c2c1Cl [701,007] | <=0.5 | 2 | > 64
4 | CCc1[nH]c2nc(Oc3cncc(C#N)c3)nc(N3CC[C@@H](NC(C)=O)C3)c2c1Cl [700,999] | 2 | 2 | > 64
5 | CCc1[nH]c2nc(Sc3cnc4cccnc4c3)nc(N3CC4C(N)C4C3)c2c1C (stereo not drawn) [701,143] | <=0.5 | 2 | 64 (≈ 153 µM)
6 | CCc1[nH]c2nc(Sc3cncnc3)nc(N3CC4C(C3)C4(N)C(N)=O)c2c1Cl (stereo not drawn) [700,967] | <=0.5 | 4 | > 64
7 | CCc1[nH]c2nc(Oc3cncc(C#N)c3)nc(Oc3cccc(OC)c3)c2c1Br [700,966] | <=0.5 | <=0.5 | > 64
8 | CCc1[nH]c2nc(Oc3cncc(C(=O)O)c3)nc(Oc3cncnc3)c2c1Cl [700,932] | >64 | >64 | > 64
9 | CCc1[nH]c2nc(Sc3ccc4nc(N)n[n+]([O-])c4c3)nc(N3CC[C@@H](N)C3)c2c1Cl [701,087] | <=0.5 | <=0.5 | > 64
10 | CCc1[nH]c2nc(Sc3cnc4cccnc4c3)nc(N3C[C@H](N)[C@H](C(=O)NCc4cccnc4)C3)c2c1Cl [701,020] | 4 | 2 | > 64
11 | CCc1[nH]c2nc(Sc3cnc4cccnc4c3)nc(N3C[C@H](N)[C@H](C(=O)N[C@@H](CO)c4ccccc4)C3)c2c1Cl [701,021] | 4 | 4 | > 64
12 | CCc1[nH]c2nc(Sc3cncc(S(=O)(=O)N(C)C)c3)nc(N3CC4C(N)C4C3)c2c1C (stereo not drawn) [701,183] | 16 | 64 | > 64
13 | CCc1[nH]c2nc(Oc3cncc(C#N)c3)nc(Oc3ccc4ncnc(N5CC(N)C5)c4c3)c2c1Br [701,298] | 2 | 4 | > 64
14 | CCc1[nH]c2nc(Sc3cccnc3)nc(Cl)c2c1C(F)F [701,153] | 64 | >64 | > 64
15 | CCc1[nH]c2nc(Sc3cncc(S(=O)(=O)N(C)C)c3)nc(N3CC4C(N)C4C3)c2c1Cl (stereo not drawn) [701,181] | 2 | 8 | > 64
16 | CCc1[nH]c2nc(Sc3cnc4ccc[n+]([O-])c4c3)nc(N(C)CCNC)c2c1Cl [701,037] | 8 | 16 | > 64
17 | CCc1[nH]c2nc(Sc3cnc4c(=N)n(CCN(C)C)c(C)nc4c3)nc(N3CC[C@@H](N)C3)c2c1Cl [700,924] | 16 | 4 | 64 (≈ 121 µM)
18 | CCc1[nH]c2nc(Sc3ccc4c(-n5ccnc5)cc(C)nc4c3)nc(N3CC[C@@H](N)C3)c2c1Cl [700,913] | 2 | 2 | > 64
19 | CCc1[nH]c2nc(Oc3cnc(C(N)=O)nc3)nc(N3CC4C(N)C4C3)c2c1Cl (stereo not drawn) [701,133] | 8 | 8 | > 64
20 | CCc1[nH]c2nc(Sc3cnc4ncn(C)c(=O)c4c3)nc(N3CC4C(N)C4C3)c2c1C (stereo not drawn) [701,239] | 2 | 16 | 64 (≈ 143 µM)
21 | CCc1[nH]c2nc(Sc3ccc4c(N5CCC(N)CC5)nc(C)nc4c3)nc(N3CC4C(N)C4C3)c2c1Cl (stereo not drawn) [700,984] | 4 | 8 | 8 (≈ 14.5 µM)
22 | CCc1[nH]c2nc(Oc3ccc4nccnc4c3)nc(Oc3ccc4c(c3)ncc[n+]4[O-])c2c1Br [701,060] | <=0.5 | <=0.5 | > 64

Row | SMILES | MIC, SA (S. aureus ATCC 13709) | MIC Spn52 (S. pneumoniae ATCC 51916) | MIC EC8 (E. coli 8 ATCC 25922) [µg/mL]
23 | CCc1[nH]c2nc(Oc3cncc(C(N)=O)c3)nc(N3CC4C(N)C4C3)c2c1Cl (stereo not drawn) [701,278] | >64 | >64 | > 64
24 | CCc1[nH]c2nc(Sc3ccc4ccc[n+]([O-])c4c3)nc(N3CC[C@@H](N)C3)c2c1Cl [700,993] | <=0.5 | 2 | 16 (≈ 36.3 µM)
25 | CCc1[nH]c2nc(Oc3cncc(OC)c3)nc(N3CC4C(N)C4C3)c2c1Cl (stereo not drawn) [701,041] | 8 | 16 | > 32
26 | CCc1[nH]c2nc(Sc3ccc4ccc[n+]([O-])c4c3)nc(N3CC4C(N)C4C3)c2c1Cl (stereo not drawn) [700,994] | <=0.5 | <=0.5 | 8 (≈ 17.7 µM)
27 | CCc1[nH]c2nc(SC)nc(N3CC[C@@H](N)C3)c2c1C#N [701,077] | >64 | >64 | > 64
28 | CCc1[nH]c2nc(Sc3ccc4cc(C(=O)N5CC(O)C5)c(C)[n+]([O-])c4c3)nc(N3CC[C@@H](N)C3)c2c1Cl [701,048] | 16 | >64 | > 64
29 | CCc1[nH]c2nc(Sc3cnc4cccnc4c3)nc(N3CCC4CNC4C3)c2c1Cl (stereo not drawn) [701,115] | <=0.5 | <=0.5 | 16 (≈ 35.4 µM)
30 | CCc1[nH]c2nc(Oc3cncc(C#N)c3)nc(N3CCOCC3)c2c1Cl [701,031] | <=0.5 | 2 | > 64
31 | CCc1[nH]c2nc(Sc3ccc4cc5c([n+]([O-])c4c3)CCOC5)nc(N3CC4C(N)C4C3)c2c1Cl (stereo not drawn) [701,084] | <=0.5 | <=0.5 | 8 (≈ 15.7 µM)
32 | CCc1[nH]c2nc(Oc3ccc4nccnc4c3)nc(Oc3cncc(C#N)c3)c2c1Br [700,987] | <=0.5 | <=0.5 | > 64
33 | CCc1[nH]c2nc(Oc3cccc(C#N)c3)nc(C(C)(NO)NO)c2c1Cl [700,954] | >32 | >32 | > 32
34 | CCc1[nH]c2nc(Oc3ccc4nccnc4c3)nc(Oc3ccc(C#N)cc3Cl)c2c1Cl [701,286] | >64 | >64 | > 64
35 | CCc1[nH]c2nc(Oc3ccc4cccnc4c3)nc(N3CC4C(N)C4C3)c2c1Cl (stereo not drawn) [701,055] | >64 | >64 | > 64
36 | CCc1[nH]c2nc(Sc3ccc4cc5c([n+]([O-])c4c3)CCNC5)nc(N3CCc4nc(N)sc4C3)c2c1Cl [700,990] | 1 | 16 | > 64
37 | CCc1[nH]c2nc(Oc3cnc4ccoc4c3)nc(N3CC(N)C3)c2c1Br [700,935] | 2 | 32 | > 64
38 | CCc1[nH]c2nc(Sc3cnc4cccnc4c3)nc(N3CCC(CNS(=O)(=O)c4ccccc4)C3)c2c1Cl (stereo not drawn) [701,045] | <=0.5 | 1 | > 64
39 | CCc1[nH]c2nc(Sc3cnc4nccnc4c3)nc(N(CCN)CC(C)C)c2c1Cl [701,148] | 64 | 64 | > 64
40 | CCc1[nH]c2nc(Oc3cncc(C#N)c3)nc(Oc3cncc(OC)c3)c2c1Br [700,945] | <=0.5 | <=0.5 | > 64
41 | NC1C2CN(c3nc(Sc4cnc5cccnc5c4)nc4[nH]c(C5CC5)c(Cl)c34)CC12 (stereo not drawn) [701,063] | 2 | 2 | 4 (≈ 8.89 µM)
42 | CCc1[nH]c2nc(Sc3cnc4cccnc4c3)nc(N3C[C@H](N)[C@H](C(=O)N4CC(N)C4)C3)c2c1Cl [701,016] | >64 | >64 | > 64
43 | Cc1[nH]c2nc(Sc3cnc4nccnc4c3)nc(N3CC4C(N)C4C3)c2c1C (stereo not drawn) [701,117] | 8 | 8 | > 64
44 | CCc1[nH]c2nc(Sc3cnc4c(=N)n(CCCN5CCC(N)C5)c(C)nc4c3)nc(N3CC[C@@H](N)C3)c2c1Cl (stereo partly drawn) [700,943] | 32 | 32 | 64 (≈ 110 µM)
